In US20140017701A1, “CHIMERIC PDK1 KINASES” (priority 2011, published 2014):

What was measured:
PDK1/PKCζ chimera = biological target: T1, PDK1/PKCζ chimera (Homo sapiens, UniProt O15530, F157L/I118V/I119H/L113V/Q292A/R131K/T128Q/T148C/V124I/Y288G); experiment: Activity assay with PDK1/PKCζ chimera; type: biochemical; conditions: PDK1 50-359/PKCζ chimera, PDK1[P-P-ζ]
T1 construct: His (N); made in house; host or cells: insect cells
T1 sequence (O15530 50-359 L113V/I118V/I119H/V124I/T128Q/R131K/T148C/F157L/Y288G/Q292A): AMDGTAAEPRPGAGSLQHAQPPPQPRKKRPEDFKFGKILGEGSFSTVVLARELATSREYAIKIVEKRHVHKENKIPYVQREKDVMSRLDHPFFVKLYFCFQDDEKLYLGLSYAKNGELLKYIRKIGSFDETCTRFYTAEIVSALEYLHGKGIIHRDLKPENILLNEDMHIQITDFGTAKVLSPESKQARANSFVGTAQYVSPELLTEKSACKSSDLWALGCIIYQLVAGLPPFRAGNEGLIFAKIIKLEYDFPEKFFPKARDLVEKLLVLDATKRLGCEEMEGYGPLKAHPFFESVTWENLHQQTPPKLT
Method: The protein kinase activity assays were performed essentially as previously described (Engel, M. et al. Embo J 25, 5469-80 (2006)). The assays were done in a 96-well format and 4 μl aliquots spotted on P81 phospho-cellulose papers (Whatman) using epMotion 5070 (Eppendorf), washed in 0.01% phosphoric acid, dried, and then exposed and analyzed using PhosphoImager technology (FLA-9000 Starion, Fujifilm). Atypical PKC (aPKC) activity assays were performed in a total volume of 20 μl containing 50 mM Tris-HCl pH 7.5, 0.05 mg/ml BSA, 0.1% (v/v) 2-mercaptoethanol, 10 mM MgCl2, 100 μM [γ^32P]ATP (5-50 cpm/pmol), 0.003% Brij, 30-50 ng of aPKC, and MBP (10 μM) or PSRtide (100 μM) as the substrate. After 15 min pre-incubation, the kinase reaction was started by addition of 6 μl of an ATP-Mg mix. When required, lipid activator (LA) phosphatidylserine (100 ng) or PKC lipid activator mix (1×) was included in the pre-incubation. Low basal activity and consistent activation of 1-592 PKCζ and 498 PKCζ by LA was obtained when the pre-incubation time was started by addition of the whole mix on the enzyme.
The substrates were T308tide (200 μM) for PDK1, Kemptide (100 μM) for PKA, and Crosstide (100 μM) for SGK, PKB, S6K, and PRK2. The activity assays for PKCα, β, θ, and δ were performed in the presence of PKC lipid activator mix (1×) using 3 μM of histone H1 as substrate.

[1] = biological target: T2, GST-PDK1 1-556 with PIF-pocket mutated to mimic PKCz (Homo sapiens, UniProt O15530, F157L/I118V/I119H/L113V/R131K/T128Q/T148C/V124I); experiment: Activity assay with full length GST-PDK1 1-556 mutated to mimic the PIF-pocket of PKCz; type: biochemical; conditions: without the dm mutation
T2 construct: a GST-PDK1 1-556 (full length, without the dm mutation); made in house; host or cells: HEK293 (general method for GST-fused kinases)
T2 sequence (O15530 1-556 L113V/I118V/I119H/V124I/T128Q/R131K/T148C/F157L): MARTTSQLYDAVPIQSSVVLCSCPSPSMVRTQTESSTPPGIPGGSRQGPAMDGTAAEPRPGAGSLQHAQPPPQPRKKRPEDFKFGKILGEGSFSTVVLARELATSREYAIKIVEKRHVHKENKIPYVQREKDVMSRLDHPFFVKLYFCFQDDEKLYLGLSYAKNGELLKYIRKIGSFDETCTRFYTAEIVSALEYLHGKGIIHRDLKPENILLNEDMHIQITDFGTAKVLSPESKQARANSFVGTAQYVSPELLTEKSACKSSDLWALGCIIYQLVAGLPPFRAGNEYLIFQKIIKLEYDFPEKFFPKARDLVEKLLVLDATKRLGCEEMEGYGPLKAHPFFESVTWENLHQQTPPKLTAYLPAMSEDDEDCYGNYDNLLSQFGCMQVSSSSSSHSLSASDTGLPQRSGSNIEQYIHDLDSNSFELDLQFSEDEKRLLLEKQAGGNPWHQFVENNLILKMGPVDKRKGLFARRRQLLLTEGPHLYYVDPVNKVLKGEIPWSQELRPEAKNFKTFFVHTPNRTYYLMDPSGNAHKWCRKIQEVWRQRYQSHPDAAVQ
Description: Thus, non-mutated PDK1 50-359 protein and other constructs of PDK1 lacking the (dm) mutations, when mutated at the PIF-pocket to mimic the PIF-pocket of other AGC kinases, are also expected to transduce the conformational change similarly to the dmPDK1 50-359. […] The preferred construct for mutagenesis to create the chimeric proteins is dmPDK1 50-359. Also preferred is the use of PDK1 50-359 which can be produced in high quality for crystallization studies or other suitable constructs, for example PDK1 76-359 that corresponds to a sequence of aminoacids observed in the crystals of PDK1 in different crystal packings.

Effect on PDK1/PKCζ chimera activity (PDK1/PKCζ chimera): inhibits
Effect on activity of GST-PDK1 1-556 mutated to mimic PIF-pocket of PKCz [1]: inhibited
SMILES: Cl.O=C(O)CC(Cc1nc2cc(-c3ccccc3)ccc2[nH]1)c1ccc(Cl)cc1 (centres unmarked) [PS168]
